Laboratory results taken from US20230220021A1, “CYCLIC PEPTIDE INHIBITORS OF PSD-95 AND USES THEREOF” (University of Copenhagen, priority 2020, published 2023).
Where a SMILES comes first, the peptide text is derived from it. [ ]: non-standard residue; d: D form.

Key:
PSD-95-PDZ2 [1] = target: T1, PSD-95-PDZ2 (Homo sapiens, UniProt P78352); assay: Fluorescence polarization (FP) competition assay against cyclic nNOS TAMRA probe; assay type: binding; details: FP inhibition constant normalized to WT value
T1 construct: 7xHis (N); made in house; host or cells: Escherichia coli B21 pLys (for the mutants, 'as previously described')
Description: Fluorescence polarization (FP). FP assays were performed in a 384-well plate format. Fluorescence polarization was measured using a Safire 2 plate reader. The instrument Z-factor was optimized for each assay. The G-factor was calibrated to an initial milli polarization value of 20. The wavelength for the cyclic nNOS β-hairpin TAMRA probe was: ex: 530 nm and em: 580 nm. Every measurement was performed in NaPI 50 mM, 50 mM NaCl and 1% BSA at pH 7.2, 25° C. […] The curves were done in triplicates. Then, the polarization was fitted into a one-site binding model using Prism software 8.0 (GraphPad), from which the Kd can be measured. […] The mili polarization (mP) values were plotted as a function of peptide concentration and fitted to a sigmoidal dose-response curve using Prism software 8.0 (GraphPad). The Ki values were calculated according to Nikolovska-Coleska Z. et al.^40-41

PSD-95-PDZ2 [2] = target: T2, PSD-95-PDZ2 (Homo sapiens, UniProt P78352, V178C); assay: SPOT peptide array screening with TAMRA labelled PSD-95-PDZ2; assay type: binding; details: SPOT array, TAMRA labelled PSD-95-PDZ2-V178C, normalized to WT
T2 construct: screened with the TAMRA labelled PSD-95-PDZ2-V178C domain; 7xHis (N); made in house
Procedure, shortened: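 First, arrays were blocked 1 h and scanned to record background. Next, 50 nM labelled PDZ2-V178C in PBS pH 7.2 with 0.5% BSA bound for 1 h protected from light. Finally, after washes, 532 nm fluorescence was measured and background-corrected.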

| Relative Ki (Ki mut/Ki WT) (PSD-95-PDZ2 [1]) | Normalized SPOT fluorescence (Mut/WT) (PSD-95-PDZ2 [2]) | SMILES |
| --- | --- | --- |
| 0.83 | 1.30 | CC[C@H](C)[C@@H]1NC(=O)[C@H]([C@@H](C)O)NC(=O)[C@H](CCCCN)NC(=O)[C@@H]2CCCN2C(=O)[C@H](C)NC(=O)CNC(=O)[C@H](CC(=O)O)NC(=O)CNC(=O)[C@H]([C@@H](C)O)NC(=O)[C@H](Cc2ccccc2)NC(=O)[C@H]([C@@H](C)O)NC(=O)[C@H]([C@@H](C)O)NC(=O)[C@H](CCC(=O)O)NC(=O)[C@H](CC(C)C)NC(=O)[C@H](Cc2c[nH]cn2)NC(=O)[C@H]([C@@H](C)O)NC(=O)[C@H](CCC(N)=O)NC(=O)CNC(=O)[C@H]2CCCN2C(=O)[C@H](CCC(N)=O)NC(=O)[C@H]([C@@H](C)O)NC(=O)[C@H](C(C)C)NC(=O)[C@H](CCCNC(=N)N)NC1=O [compound 66] (cyclo(THLETTFTGDGAPKTIRVTQ[dP]GQ)) |
| 51.60 | 0.05 | CC[C@H](C)[C@@H]1NC(=O)[C@H]([C@@H](C)O)NC(=O)[C@H](CCCCN)NC(=O)[C@@H]2CCCN2C(=O)[C@H]([C@@H](C)O)NC(=O)CNC(=O)[C@H](CC(=O)O)NC(=O)CNC(=O)[C@H]([C@@H](C)O)NC(=O)[C@H](C(C)C)NC(=O)[C@H]([C@@H](C)O)NC(=O)[C@H]([C@@H](C)O)NC(=O)[C@H](CCC(=O)O)NC(=O)[C@H](CC(C)C)NC(=O)[C@H](Cc2c[nH]cn2)NC(=O)[C@H]([C@@H](C)O)NC(=O)[C@H](CCC(N)=O)NC(=O)CNC(=O)[C@H]2CCCN2C(=O)[C@H](CCC(N)=O)NC(=O)[C@H]([C@@H](C)O)NC(=O)[C@H](C(C)C)NC(=O)[C@H](CCCNC(=N)N)NC1=O [compound 21] (cyclo(THLETTVTGDGTPKTIRVTQ[dP]GQ)) |
| 1.65 | 0.15 | CC[C@H](C)[C@@H]1NC(=O)[C@H]([C@@H](C)O)NC(=O)[C@H](CCCCN)NC(=O)[C@@H]2CCCN2C(=O)[C@H]([C@@H](C)O)NC(=O)CNC(=O)[C@H](CC(=O)O)NC(=O)CNC(=O)[C@H]([C@@H](C)O)NC(=O)[C@H](Cc2ccccc2)NC(=O)[C@H]([C@@H](C)O)NC(=O)[C@H]([C@@H](C)O)NC(=O)[C@H](CCC(=O)O)NC(=O)[C@H](CC(C)C)NC(=O)[C@H](Cc2c[nH]cn2)NC(=O)[C@H]([C@@H](C)O)NC(=O)[C@H](CCC(N)=O)NC(=O)CNC(=O)[C@H]2CCCN2C(=O)[C@H](CCC(N)=O)NC(=O)[C@H]([C@@H](C)O)NC(=O)[C@H](C(C)C)NC(=O)[C@H](C)NC1=O [compound 71] (cyclo(THLETTFTGDGTPKTIAVTQ[dP]GQ)) |
| 1.07 | 0.93 | CC[C@H](C)[C@@H]1NC(=O)[C@H]([C@@H](C)O)NC(=O)[C@H](CCCCN)NC(=O)[C@H](C)NC(=O)[C@H]([C@@H](C)O)NC(=O)CNC(=O)[C@H](CC(=O)O)NC(=O)CNC(=O)[C@H]([C@@H](C)O)NC(=O)[C@H](Cc2ccccc2)NC(=O)[C@H]([C@@H](C)O)NC(=O)[C@H]([C@@H](C)O)NC(=O)[C@H](CCC(=O)O)NC(=O)[C@H](CC(C)C)NC(=O)[C@H](Cc2c[nH]cn2)NC(=O)[C@H]([C@@H](C)O)NC(=O)[C@H](CCC(N)=O)NC(=O)CNC(=O)[C@H]2CCCN2C(=O)[C@H](CCC(N)=O)NC(=O)[C@H]([C@@H](C)O)NC(=O)[C@H](C(C)C)NC(=O)[C@H](CCCNC(=N)N)NC1=O [compound 67] (cyclo(THLETTFTGDGTAKTIRVTQ[dP]GQ)) |
